Results from patent US10918106B2, “Methods for hydraulic enhancement of crops” (Sound Agriculture Company, priority 2015, dated 2021).
“Also recorded” adds a separate entry of the source.

Legend:
Assay type in all cases: in vivo
tested plant = test: Hydraulic enhancement test of plant growth regulators (gibberellins, cytokinins); conditions: for hydraulic enhancement by gibberellins: FIG. 16
Description: Specific combinations of plant growth regulators (PGRs) were used for hydraulic enhancement and increased harvest yield of crops. PGRs were tested to be co-applied with strigolactones and/or AB compounds (e.g., AB01). PGRs were also tested in the absence of strigolactones and/or AB compounds. […] PGRs were tested as a seed treatment, soil drench, granule formulation, or foliar spray. […] In another experiment, the effect of hydraulic enhancement was also tested with cytokinins, including kinetin, zeatin, 6-benzylaminopurine (6-BAP), diphenylurea, thidiazuron, and their chemical derivatives and analogs.

[1] = tested on: corn (Zea mays) seedlings; test: ex vivo hydraulic enhancement (xVHS) transpiration assay
Description: In this assay with corn (Zea mays), seedlings were grown in defined potting soil (in this case, Sunshine Mix #4) for 2 weeks until they were approximately 15 to 20 centimeters tall. Seedlings were then cut at the base of the stem and placed in individual tubes with defined volume of water (FIG. 4A). Hydraulic enhancing chemistry (for example, AB01) was present in the defined volume of water at various concentrations. Excised seedlings were placed in a defined temperature and humidity environment under continuous illumination, and water use was measured after 12, 18, or 24 hours. Using this assay, chemistry or other inputs that induce hydraulic enhancement can be tested and discovered. In this assay, 100 ng of AB01 in acetone was added to 2 week old corn seedlings and water use was monitored over 24 hours.

plant = test: Hydraulic enhancement test of ABA biosynthesis inhibitor fluridone; conditions: fluridone 1 μg (FIG. 15)
Description: Using this discovery, it could be reasoned that addition of inhibitors of ABA biosynthesis would result in increased hydraulic enhancement. In another experiment, fluridone was tested for its effect in hydraulic enhancement. Fluridone is an inhibitor of the phytoene destaturase, which is an upstream step in the synthesis of abscisic acid.

Compound | hydraulic enhancement by gibberellins (tested plant) | other results
c1ccc(CNc2ncnc3nc[nH]c23)cc1 [6-BAP, 6-benzylaminopurine] | – | hydraulic enhancement by cytokinin (tested plant; 1 μg (FIG. 17)): improved hydraulic enhancement; also recorded: elicit hydraulic enhancement
CC1=CC(Oc2c(C)occc2=O)OC1=O (stereo not drawn) [AB09, 2-methyl-3-((4-methyl-5-oxo-2,5-dihydrofuran-2-yl)oxy)-4H-pyran-4-one] | – | increase in transpiration ([1]; 10Ong added to the xVHS assay (FIG. 12)): 40%; ability to induce hydraulic enhancement ([1]; screen of AB compounds/strigolactones (FIG. 12)): able to induce hydraulic enhancement; also recorded: resulted in hydraulic enhancement of crop plants
C=C1C[C@]23C[C@@]1(O)CC[C@H]2[C@@]12CC[C@H](O)[C@@](C)(C(=O)O1)[C@H]2[C@@H]3C(=O)O [GA1] | hydraulic enhancement was elicited | –
C=C1C[C@]23C[C@@]1(O)CC[C@H]2[C@@]12C=C[C@H](O)[C@@](C)(C(=O)O1)[C@H]2[C@@H]3C(=O)O [GA3] | hydraulic enhancement was elicited | –
C=C1C[C@]23C[C@H]1CC[C@H]2[C@@]12CC[C@H](O)[C@@](C)(C(=O)O1)[C@H]2[C@@H]3C(=O)O [GA4] | hydraulic enhancement was elicited | –
C=C1C[C@]23C[C@H]1CC[C@H]2[C@@]12C=C[C@H](O)[C@@](C)(C(=O)O1)[C@H]2[C@@H]3C(=O)O [GA7] | hydraulic enhancement was elicited | –
CC1=CC(=O)CC(C)(C)[C@@]1(O)/C=C/C(C)=C\C(=O)O [abscisic acid] | – | effect on hydraulic enhancement in the xVHS assay ([1]; addition of abscisic acid (FIG. 14)): inhibited hydraulic enhancement; also recorded: reduce the hydraulic enhancement
CC1CC23CC1CCC2C1(C)CCCC(C)(C)C1C3C (stereo not drawn) [ent-gibberellane] | hydraulic enhancement was elicited | –
C=C1C[C@@]23CC[C@@H]4C(C)(C)CCC[C@@]4(C)[C@@H]2CC[C@@H]1C3 [ent-kaurene] | hydraulic enhancement was elicited | –
C=C1C[C@]23C[C@@]1(O)CC[C@H]2[C@@]12C=C[C@H](O)[C@@](C)(C(=O)O1)[C@H]2[C@@H]3C(=O)O [gibberellic acid] | improved hydraulic enhancement | –
fluridone | – | effect on hydraulic enhancement (plant): improved hydraulic enhancement; also recorded: increase hydraulic enhancement
